In patent US20260364089A1, “PYRIDOPYRIMIDINE KRAS INHIBITORS” (Treeline Biosciences, Inc., priority 2022, published 2026) one finds IC50 data, which are given here for 22 compounds.

In the first assay the target is T1, KRas G12V (Homo sapiens, UniProt P01116, G12V).
T1 construct: Biotinylated KRas G12V (aa 1-169) loaded with GDP nucleotide; biotin (biotinylated)
T1 sequence (P01116 1-169 G12V): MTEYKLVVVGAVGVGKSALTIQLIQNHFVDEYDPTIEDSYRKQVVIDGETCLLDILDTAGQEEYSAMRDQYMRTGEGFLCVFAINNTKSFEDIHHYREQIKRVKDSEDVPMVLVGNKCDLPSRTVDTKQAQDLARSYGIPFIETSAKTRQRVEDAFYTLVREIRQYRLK
Kind of assay: SOS1-Catalyzed Nucleotide Exchange Assay, KRas G12V (Method 2). Format: biochemical. The following applies: Method 2, A; 5 nM KRas G12V (aa 1-169, GDP-loaded), 50 nM SOS1; read-out: KRas G12V IC50 (nM) (Method 2, A). The protocol:
KRas G12V [Method 2]: Compounds were pre-dispensed via Echo liquid handling (acoustic, touch-free) to generate assay ready plates (ARP). More precisely, a 10-point concentration response curve for each compound was prepared with appropriate top concentration (1 μM, 10 μM, 100 μM). Biotinylated KRas G12V (aa 1-169) loaded with GDP nucleotide and Streptavidin-Europium (SA-EU, Columbia Biosciences) were preincubated in assay buffer (20 mM HEPES pH 7.4, 150 mM NaCl, 5 mM MgCl2, 1 mM DTT, 0.01% Brij-35, 0.3 mg/mL BSA) on ice for 30 min. Separately SOS1 (aa 546-1049) and EDA-GTP-DY647P1 (Jena Bioscience) were preincubated in assay buffer on ice for 30 min. After 30 minutes of incubation for the assay components, 5 μL buffer and 5 μL of KRas G12V-SA-Eu were added to each well of the ARP. After a further 30 min, 5 μL of SOS1-EDA-GTP-D467P1 was added to start the nucleotide exchange reaction. Final concentration in the assay were 5 nM KRas G12V, 50 nM SOS1 (aa 564-1049). The reaction was allowed to proceed for 60-90 minutes after which the plate was read on a plate reader. After normalization of the raw data, the data was fit to a four-parameter logistic curve.
One may read the IC50 as the concentration that gives 50% inhibition. For `O=C1CCCCc2c(Cl)cc(O)cc2-c2ncc3c(nc(OC[C@@]45CCCN4C[C@H](F)C5)nc3c2F)N2CCCC(O)(CCN1)C2` (single isomer, unassigned) [Compound 140b], the IC50 was at most 100 nM.

In the case of `O=C1CCCc2c(F)ccc3cc(O)cc(c23)-c2ncc3c(nc(OC[C@@]45CCCN4C[C@H](F)C5)nc3c2F)N2CCCC(CN1)C2` (stereo partly drawn) [Compound 135a, 2^8,3^7-difluoro-2^2-(((2R,7aS)-2-fluorotetrahydro-1H-pyrrolizin-7a(5H)-yl)methoxy)-3^3-hydroxy-8-aza-2(4,7)-pyrido[4,3-d]pyrimidina-1(1,3)-piperidina-3(1,8)-naphthalenacyclononaphan-7-one], the IC50 was at most 100 nM.

On to `Nc1cc(Cl)c2c(c1)-c1ncc3c(nc(OC[C@@]45CCCN4C[C@H](F)C5)nc3c1F)N1CCCC(CCNC(=O)CCCC2)C1` (stereo partly drawn) [Compound 154a, 3^5-amino-3^3-chloro-2^8-fluoro-2^2-(((2R,7aS)-2-fluorotetrahydro-1H-pyrrolizin-7a(5H)-yl)methoxy)-9-aza-2(4,7)-pyrido[4,3-d]pyrimidina-1(1,3)-piperidina-3(1,2)-benzenacycloundecaphan-8-one], for which the IC50 is at most 100 nM.

For `Nc1cc(Cl)c2c(c1)-c1c(Cl)cc3c(nc(OC[C@@]45CCCN4C[C@H](F)C5)nc3c1F)N1CCCC(CCNC(=O)CCCC2)C1` (stereo partly drawn) [Compound 155a, 3^5-amino-2^6,3^3-dichloro-2^8-fluoro-2^2-(((2R,7aS)-2-fluorotetrahydro-1H-pyrrolizin-7a(5H)-yl)methoxy)-9-aza-2(4,7)-quinazolina-1(1,3)-piperidina-3(1,2)-benzenacycloundecaphan-8-one], the IC50 was 1000 to 10000 nM.

As to `Nc1cc(Cl)c2c(c1)-c1ncc3c(nc(OC[C@@]45CCCN4C[C@H](F)C5)nc3c1F)N1CCCC(O)(CCNC(=O)CCCC2)C1` (stereo partly drawn) [Compound 156a, 3^5-amino-3^3-chloro-2^8-fluoro-2^2-(((2R,7aS)-2-fluorotetrahydro-1H-pyrrolizin-7a(5H)-yl)methoxy)-13-hydroxy-9-aza-2(4,7)-pyrido[4,3-d]pyrimidina-1(1,3)-piperidina-3(1,2)-benzenacycloundecaphan-8-one], the IC50 was at most 100 nM.

With `Nc1ccc2c(c1)-c1ncc3c(nc(OC[C@@]45CCCN4C[C@H](F)C5)nc3c1F)N1CCCC(O)(CCNC(=O)CCCC2)C1` (stereo partly drawn) [Compound 157a, 3^5-amino-2^8-fluoro-2^2-(((2R,7aS)-2-fluorotetrahydro-1H-pyrrolizin-7a(5H)-yl)methoxy)-1^3-hydroxy-9-aza-2(4,7)-pyrido[4,3-d]pyrimidina-1(1,3)-piperidina-3(1,2)-benzenacycloundecaphan-8-one], the IC50 lay in the range of 1000 to 10000 nM.

As for `Nc1cc(Cl)c2c(c1)-c1c(Cl)cc3c(nc(OC[C@@]45CCCN4C[C@H](F)C5)nc3c1F)N1CCCC(O)(CCNC(=O)CCCC2)C1` (stereo partly drawn) [Compound 158a, 3^5-amino-2^6,3^3-dichloro-2^8-fluoro-2^2-(((2R,7aS)-2-fluorotetrahydro-1H-pyrrolizin-7a(5H)-yl)methoxy)-1^3-hydroxy-9-aza-2(4,7)-quinazolina-1(1,3)-piperidina-3(1,2)-benzenacycloundecaphan-8-one], the IC50 fell in the range of 1000 to 10000 nM.

For `Nc1cc2c(cc1F)CCCCC(=O)NCCC1CCCN(C1)c1nc(OC[C@@]34CCCN3C[C@H](F)C4)nc3c(F)c-2ncc13` (stereo partly drawn) [Compound 159a, 3^5-amino-2^8,3^4-difluoro-2^2-(((2R,7aS)-2-fluorotetrahydro-1H-pyrrolizin-7a(5H)-yl)methoxy)-9-aza-2(4,7)-pyrido[4,3-d]pyrimidina-1(1,3)-piperidina-3(1,2)-benzenacycloundecaphan-8-one], the IC50 is 1000 to 10000 nM.

`Nc1ccc2c(c1F)-c1ncc3c(nc(OC[C@@]45CCCN4C[C@H](F)C5)nc3c1F)N1CCCC(CCNC(=O)CCCC2)C1` (stereo partly drawn) [Compound 160a, 3^5-amino-2^8,3^6-difluoro-2^2-(((2R,7aS)-2-fluorotetrahydro-1H-pyrrolizin-7a(5H)-yl)methoxy)-9-aza-2(4,7)-pyrido[4,3-d]pyrimidina-1(1,3)-piperidina-3(1,2)-benzenacycloundecaphan-8-one]: the IC50 lay in the range of 10000 to 30000 nM.

`Nc1cc2c(cc1F)CCCCC(=O)NCCC1(O)CCCN(C1)c1nc(OC[C@@]34CCCN3C[C@H](F)C4)nc3c(F)c-2ncc13` (stereo partly drawn) [Compound 161a, 3^5-amino-2^8,3^4-difluoro-2^2-(((2R,7aS)-2-fluorotetrahydro-1H-pyrrolizin-7a(5H)-yl)methoxy)-1^3-hydroxy-9-aza-2(4,7)-pyrido[4,3-d]pyrimidina-1(1,3)-piperidina-3(1,2)-benzenacycloundecaphan-8-one]: the IC50 lay in the range of 1000 to 10000 nM.

The assay is the same for the next values; noted with them: Method 2, B; 5 nM KRas G12V (aa 1-169, GDP-loaded), 50 nM SOS1; read-out: KRas G12V IC50 (nM) (Method 2, B).
On to `O=C1CCCCc2c(Cl)cc(O)cc2-c2ncc3c(nc(OC[C@@]45CCCN4C[C@H](F)C5)nc3c2F)N2CCCC(O)(CCN1)C2` (single isomer, unassigned) [Compound 140b], for which the IC50 was at most 100 nM.

Turning to `O=C1CCCCc2c(Cl)cc(O)cc2-c2ncc3c(nc(OC[C@@]45CCCN4C[C@H](F)C5)nc3c2F)N2CCCC(O)(CCN1)C2` (single isomer, unassigned) [Compound 140c], the IC50 is at most 100 nM.

`Nc1cc2c(cc1F)CCCCC(=O)NCCC1CCCN(C1)c1nc(OC[C@@]34CCCN3C[C@H](F)C4)nc3c(F)c-2ncc13` (single isomer, unassigned) [Compound 159b]: the IC50 lay within 1000 to 10000 nM.

On to `Nc1cc2c(cc1F)CCCCC(=O)NCCC1CCCN(C1)c1nc(OC[C@@]34CCCN3C[C@H](F)C4)nc3c(F)c-2ncc13` (single isomer, unassigned) [Compound 159c], for which the IC50 fell in the range of 10000 to 30000 nM.

Regarding `Nc1cc2c(c(Cl)n1)CCCCC(=O)NCCC1(O)CCCN(C1)c1nc(OC[C@@]34CCCN3C[C@H](F)C4)nc3c(F)c-2c(F)cc13` (single isomer, unassigned) [Compound 188a], the IC50 fell in the range of 10000 to 30000 nM.

As to `CN(C)CC1(COc2nc3c4ccc(c(F)c4n2)-c2c(c(Cl)cc4[nH]ncc24)CCCCC(=O)NCCC2CCCN3C2)CC1` (single isomer, unassigned) [Compound 197a, 1^6-chloro-2^2-((1-((dimethylamino)methyl)cyclopropyl)methoxy)-2^8-fluoro-1^1H-6-aza-2(7,4)-quinazolina-1(4,5)-indazola-3(1,3)-piperidinacycloundecaphan-7-one], the IC50 was at most 100 nM.

For `CN(C)CC1(COc2nc3c4ccc(c(F)c4n2)-c2c(c(Cl)cc4[nH]ncc24)CCCCC(=O)NCCC2CCCN3C2)CC1` (single isomer, unassigned) [Compound 197b, 1^6-chloro-2^2-((1-((dimethylamino)methyl)cyclopropyl)methoxy)-2^8-fluoro-1^1H-6-aza-2(7,4)-quinazolina-1(4,5)-indazola-3(1,3)-piperidinacycloundecaphan-7-one], the IC50 was at most 100 nM.

In the case of `O=C1CCCCc2c(Cl)cc3[nH]ncc3c2-c2ccc3c(nc(OC[C@@]45CCCN4C[C@H](F)C5)nc3c2F)N2CCCC(CCN1)C2` (single isomer, unassigned) [Compound 202a], the IC50 is at most 100 nM.

Regarding `O=C1CCCCc2c(Cl)cc3[nH]ncc3c2-c2ccc3c(nc(OC[C@@]45CCCN4C[C@H](F)C5)nc3c2F)N2CCCC(CCN1)C2` (single isomer, unassigned) [Compound 202b], the IC50 was at most 100 nM.

As to `O=C1CCCc2c(F)ccc3cc(O)cc(c23)-c2ncc3c(nc(OC[C@@]45CCCN4C[C@H](F)C5)nc3c2F)N2CCCC(CCN1)C2` (stereo partly drawn) [Compound 118a, 2^8,3^7-difluoro-2^2-(((2R,7aS)-2-fluorotetrahydro-1H-pyrrolizin-7a(5H)-yl)methoxy)-3^3-hydroxy-8-aza-2(4,7)-pyrido[4,3-d]pyrimidina-1(1,3)-piperidina-3(1,8)-naphthalenacyclodecaphan-7-one], the IC50 is at most 100 nM.

On to `O=C1CCCc2c(F)ccc3cc(O)cc(c23)-c2ncc3c(nc(OC[C@@]45CCCN4C[C@H](F)C5)nc3c2F)N2CCCC(O)(CCN1)C2` (stereo partly drawn) [Compound 136a, 2^8,3^7-difluoro-2^2-(((2R,7aS)-2-fluorotetrahydro-1H-pyrrolizin-7a(5H)-yl)methoxy)-1^3,3^3-dihydroxy-8-aza-2(4,7)-pyrido[4,3-d]pyrimidina-1(1,3)-piperidina-3(1,8)-naphthalenacyclodecaphan-7-one], for which the IC50 was at most 100 nM.

`Nc1cc(Cl)c2c(c1)-c1ncc3c(nc(OC[C@@]45CCCN4C[C@H](F)C5)nc3c1F)N1CCOCC(CNC(=O)CCCC2)C1` (stereo partly drawn) [Compound 162a, 3^5-amino-3^3-chloro-2^8-fluoro-2^2-(((2R,7aS)-2-fluorotetrahydro-1H-pyrrolizin-7a(5H)-yl)methoxy)-9-aza-1(4,6)-oxazepana-2(4,7)-pyrido[4,3-d]pyrimidina-3(1,2)-benzenacyclodecaphan-8-one]: the half-inhibitory concentration (IC50) was 100 to 1000 nM.

On to `Nc1cc2c(cc1F)CCCCC(=O)NCCC1CCCN(C1)c1nc(OC[C@@]34CCCN3C[C@H](F)C4)nc3c(F)c-2ccc13` (stereo partly drawn) [Compound 163a, 3^5-amino-2^8,3^4-difluoro-2^2-(((2R,7aS)-2-fluorotetrahydro-1H-pyrrolizin-7a(5H)-yl)methoxy)-9-aza-2(4,7)-quinazolina-1(1,3)-piperidina-3(1,2)-benzenacycloundecaphan-8-one], for which the IC50 was 1000 to 10000 nM.
